# Data: patent US20220354911A1, “TREATMENT OF TUMORS BY A COMBINATION OF AN ONCOLYTIC ADENOVIRUS, A CDK4/6 INHIBITOR AND A FURTHER THERAPEUTICALLY ACTIVE AGENT” (KLINIKUM RECHTS DER ISAR DER TECHNISCHEN UNIVERSITÄT MÜNCHEN, priority 2019, published 2022)
# Columns and labels:
# XVir-N-31 = XVir-N-31 fiber DNA qPCR with BET inhibitors and BET degraders; type: cell-based, Mastadenovirus, Type C, Serotype 5; conditions: UMUC-3 (MOI 10) and RT112 (MOI 50), 24 hours post infection
# Protocol: 3×10^4 UMUC-3 cells and 4×10^4 RT112 cells were seeded in 12 well plates in DMEM and RPMI medium. The following day the cells were pretreated with BETi and BETd. 48 hours post seeding the cells were infected with 10 MOI for UMUC-3 and 50 MOI for RT112 and treated with the indicated concentration of BETi and BETd. After each timepoint (4, 24 hour) the cells were washed once with PBS and 200 μl of SDS DNA Lysis Buffer was added. The cells were incubated with Proteinase K before undergoing a Phenol-Chloroform-Isoamylalcohol purification. The DNA was diluted in DNase free water and the concentration of the DNA was determined using a Nanodrop. For each sample a solution of 15 ng/μl was prepared and a RT-qPCR using 75 ng of DNA and a GoTaq Master mix. Specific Fiber forward and reverse primers were used and for the calculation of the Δ ct value specific Actin primers were used as well. For each sample 3 Fiber and 3 Actin values were measured. The calculation was done in excel and each 24 hours was calculated based on its 4 hours value (initial viral entry, before replication).
# SK-N-MC cells = assay: Cell cycle distribution (propidium iodine) of SK-N-MC cells; type: cell-based; conditions: 48 hours post treatment, MK-1775 at 500 nM
# Protocol: 48 hours post treatment cells were washed twice took place with PBS (containing RNase A, 100 U/ml). Cells were trypsinized and centrifuged at 1500 rpm, 4° C. for 5 min. Cells are fixed by adding slowly 1 ml of ice-cold 80% Ethanol drop by drop to the pellet and incubated overnight. Staining was performed by adding 1 ml of staining solution (Propidium Iodine, 50 μg/ml) to the cells and incubating 30-60 min at RT with gentle rocking. MK: MK-1775; LY: LY-2835219.
# Rb, phRB and E2F1 = assay: Western blot of UMUC cells treated with cell cycle inhibitors; type: cell-based, human; conditions: 24 hours post-treatment, LEE-011 at 10 μM, MI-1040 at 1 μM
# Protocol: Western Blot analysis of UMUC cells treated with indicated concentrations of CI-1040, Roscovitine, Nutlin-3a and LEE011 (Ribociclib). 1×10^6 cells were seeded in 10 cm dishes. 24 hours post-treatment proteins were isolated using 1% SDS buffer, to achieve the disruption of the nuclear membrane. All samples were drawn up several times into a syringe to disrupt the DNA and subsequently centrifuged at 30000 rpm at 4° C. for 30 minutes. The supernatant was transferred to a new reaction tube and directly used for further steps or stored at −80° C. To separate the proteins a sodium dodecyl sulfate polyacrylamide gel electrophoresis was performed. By means of electrophoresis for approximately two hours at 100V at 4° C., 40 μg of total proteins were loaded and probed against specific indicated antibodies.
# UMUC3 cells = assay: Cell cycle analysis (flow cytometry) of UMUC3 cells; type: cell-based, human; conditions: UMUC3, 48 hours; Roscovitine 10 μM, CI-1040 1 μM, Nutlin-3a 10 μM, LEE011 10 μM; 10 MOI dl703
# Protocol: FIG. 10 is a bar diagram showing cell cycle distribution in UMUC3 cells, measured 48 hours post treatment, whereby the concentrations of the […] inhibitors was as follows: Roscovitine: 10 μM, CI-1040: 1 μM, Nutlin-3a: 10 μM, and LEE011: 10 μM.
# For cell cycle analysis cells were seeded in 6 well plates (2.5×10E4 c/well). 8 hours before infection with dl703, cells were treated with indicated concentration of cell cycle inhibitors. After infection with 10 MOI dl703 cells were again treated for 48 hours. Untreated cells and dl703 infected cells only, served as control. 48h post infection cells were harvest by trypsinization and fixed with 80% ethanol while vortexing. To investigate the cell cycle status, fixed cells were centrifuged 5 min at RT and 300 g and ethanol was aspirated. Cells were resuspended and washed with 1% BSA-PBS (Bovine Serum Albumin) and again centrifuged. Cells were stained with EDU and cell cycle analysis were performed using the Click-iT™ Plus EdU Flow Cytometry Assay Kits, Catalog nos. C10632 from Thermo Fischer. In addition, after 3× times washing with 1% BSA/PBS cells were stained with PI (Propidium Iodine, 50 μg/ml). Measurement was directly performed after staining with a FACScalibur Flow Cytometry System. Data was analyzed with FlowJo software.
# dl703 = assay: E1A-independent viral DNA replication of dl703 (fiber qPCR); type: cell-based, Mastadenovirus, Type C, Serotype 5; conditions: UMUC cells, 1 μM CI-1040, 50 MOI dl703, 48 hours post infection
# Protocol: To investigate the differences in replication of dl703 (Mantwill et al. 2013, Journal of Translational Medicine, 11, 216) under different treatment conditions, DNA-replication analysis was performed. 100,000 UMUC cells were seeded in 6-well plates and grown in DMEM medium containing 10% FCS in 5% CO2 conditions at 37° C. 24 hours post seeding cells were treated for 24 hours with 10 μM Lee (Ribociclib), 1 μM CI-1040, 10 μM Nutlin-3a and 10 μM Roscovertine and again after infection adding an appropriate amount of inhibitors to the medium. Infection with 50 MOI dl703 (Mastadenovirus, Type C, Serotype 5 with a 3.2 kb sized deletion in E1 region) took place 24 hours post treatment. After 4 and 48 hours post infection DNA were isolated and qPCR was performed using specific primers for the viral fiber gene. Fiber fwd. 5′-[…]-3′ (SEQ ID NO: 17); Fiber rev. 5′-[…]-3′ (SEQ ID NO: 18).
# T24 cells [1] = assay: Potency assay/SRB staining, XVir-N-31, Nutlin-3a and Palbociclib; type: cell-based, human; conditions: T24, 30 μM Nutlin-3a, 500 nM Palbociclib, four dpi
# Protocol: (§1) Cell killing using XVir-N-31 alone and in combination with small molecule inhibitors was analysed in 12-well plates. […] At 1 hpi, complete medium with Palbociclib was added to the cells pretreated with Palbociclib. To the control as well as to the Nutlin treated cell complete medium without inhibitors was added.
# A potency assay using T24 cells was carried out for determining the cell killing effect of XVir-N-31 alone, XVir-N-31 with Nutlin-3a, XVir-N-31 with Palbociclib, and XVir-N-31 with both Nutlin-3a and Palbociclib.
# T24shRB cells = assay: as above; type: cell-based, human; conditions: 30 μM Nutlin-3a, 500 nM Palbociclib, four dpi
# Protocol: as §1
# The same potency assay as subject to Example 27.2 was carried out using T24shRB cells. T24shRB cells are T24 cells without Rb expression. Such lacking Rb expression was generated by means of lentiviral transfection, wherein the lentivirus coded for shRNA directed to Rb. The lentivirus vector used was pLKO-RB1-shRNA19 (obtained from Addgene, Watertown, Mass. 02472, USA), the sequence of the shRNA was as follows […] (SEQ ID NO: 39). The procedure is also described by Michaud K et al. (Cancer Res. 2010 Apr. 15. 70(8):3228-38).
# T24 cells [2] = assay: Potency assay (SRB), XVir-N-31, Palbociclib and PARP inhibitor; type: cell-based; conditions: Homo sapiens, T-24, read-out: IC-80 value
# Protocol: 12,500 T24 cells were seeded per well in 12-well plates and grown over-night in RPMI Medium containing 10% FCS at 37° C. Inhibitor-treatment of cells occurred 24 h past cell seeding and again 1 hour after infection by adding indicated concentration to the medium. Infection of cells took place 24 h past inhibitor-treatment in 250 μl medium without serum. Fixation and SRB-staining took place at 4 days post infection. PD, Palbociclib; PARPi: BMN673.
# For SRB staining, the medium was removed by aspiration. Cells were fixed with 1 ml (per well) 10% cold TCA at 4° C. for 1 hour. TCA was removed by aspiration and cell layers were washed 4× with tap water. Cells were stained with 1 ml (per well) 0.5% SRB (sulforhodamine B) in 1% acetic acid for 30 min. Unbound SRB was removed in five washing steps with 1 ml 1% acetic acid/well; after each washing step, acetic acid was removed by aspiration. Plates were air-dried for 2 hrs. To solubilize the SRB stained cells, 200 μl of 10 mM Tris base was added to each well. […] The 96 well plate was loaded into an Elisa-plate reader and absorption of the samples was measured at 560 nm. […]
# In order to show the kinetics of a triple therapy of T24 cells using triple therapy comprising XVir-N-31, Palbociclib and a PARP inhibitor (BMN673 (Talazoparib)), a potency assay was carried out and the potency assessed at different points in time. […]
# UMUC-3 = assay: as above; type: cell-based; conditions: Homo sapiens; UMUC3 cells; read-out: IC-80 value
# Protocol: Seeding of UMUC-3: 3000 cells were seeded per well in 12-well plates and grown over-night in DMEM Medium containing 10% FCS at 37° C. Inhibitor-treatment of cell occurred 24 h past seeding and again 1 hour after infection by adding indicated concentration to the medium. Infection of cells took place 24 h past inhibitor-treatment. Fixation and SRB-staining took place at 1-6 days post infection (dpi: days post infection). 160 nM PARPi correspond to the IC-80 value in UMUC3 cells.
# T24 and UMUC-3 = assay: FACS cell cycle analysis, Talazoparib and Palbociclib; type: cell-based, human; conditions: T24 and UMUC-3, 48 hours
# Protocol: The influence of the applied small molecule inhibitors at their indicated concentrations on the cell cycle of bladder cancer cell lines T24 and UMUC-3 was analysed via flow cytometry analysis after DNA staining. 5×10^4 cells were seeded in 6-well plates and 24 hours later treated with appropriate inhibitors. Two days later, at approximately 80% confluency, cells were washed with PBS, trypsinized, washed again and fixated with icecold 80% ethanol. For cell cycle analysis, samples were incubated with the DNA-intercalating dye 7-aminoactinomycine D (7-AAD) and measured via FACS analysis. Evaluation of measured data was performed via the software FlowJo.
# 253J = assay: IC50 concentration of PD-0332991; type: cell-based; conditions: Homo sapiens
# Protocol: (§2) The class of CDK4/6 inhibitors as subject to Example 5 requires expression of RB. Therefor, three RB positive and two RB negative bladder cancer derived cell lines were used and the cells treated with the combination therapy. Cell lines were pretreated for 24 hours with an IC50 concentration of PD-0332991 (T24: 500 nM, RT112: 2000 nM, 253J: 100 nM) and infected with XVir-N-31 (T24 MOI50, 253J MOI 25, RT112 MOI450). Values are the average of at least 2 independent experiments. Error bars show the standard error. Four dpi, cell viability was measured using SRB assays (a, c). (b, d) Lysates of cells were prepared 3 dpi and a titer test was performed on Hek293 cells. Viral titer is shown as fold change relative to control
# T24 = assay: IC50 concentration of PD-0332991; type: cell-based; conditions: Homo sapiens, T-24
# Protocol: as §2
# RT112 = assay: IC50 concentration of PD-0332991; type: cell-based; conditions: Homo sapiens, RT-112
# Protocol: as §2
compound,measurement,setting,value
COc1nnc2ccc(N3CCC(c4ccc(OCCN5CCN(C)C(=O)[C@H]5C)cc4)CC3)nn12 [AZD5153],replication of XVir-N-31,XVir-N-31,highest
CCN1CCN(Cc2ccc(Nc3ncc(F)c(-c4cc(F)c5nc(C)n(C(C)C)c5c4)n3)nc2)CC1 [Abemaciclib],cell cycle,SK-N-MC cells,no effect
O=C(NOCC1CC1)c1ccc(F)c(F)c1Nc1ccc(I)cc1Cl [CI-1040],"Rb, phRB and E2F1 expression","Rb, phRB and E2F1",induced inhibition
same,cell cycle distribution,UMUC3 cells,clear G1-arrest
same,viral DNA replication of dl703,dl703,much lower compared to Ribociclib treated cells
C=CCn1c(=O)c2cnc(Nc3ccc(N4CCN(C)CC4)cc3)nc2n1-c1cccc(C(C)(C)O)n1 [MK-1775],cell cycle,SK-N-MC cells,increase of cells in G2/M
COc1ccc(C2=N[C@@H](c3ccc(Cl)cc3)[C@@H](c3ccc(Cl)cc3)N2C(=O)N2CCNC(=O)C2)c(OC(C)C)c1 [Nutlin-3a],cell killing by XVir-N-31,T24 cells [1],enhanced cell killing
same,"Rb, phRB and E2F1 expression","Rb, phRB and E2F1",no pronounced effect
same,cell cycle distribution,UMUC3 cells,only little or no effect on the cell cycle
same,killing of Rb-negative cells by XVir-N-31,T24shRB cells,not effective
Cn1ncnc1[C@H]1c2n[nH]c(=O)c3cc(F)cc(c23)N[C@@H]1c1ccc(F)cc1 [PARPi],IC80,T24 cells [2],15 nM
same,IC80,UMUC-3,160 nM
same,G1 arrest on addition of Talazoparib,T24 and UMUC-3,not influenced
CC(=O)c1c(C)c2cnc(Nc3ccc(N4CCNCC4)cn3)nc2n(C2CCCC2)c1=O [Palbociclib],IC50,253J,100 nM
same,IC50,T24,500 nM
same,IC50,RT112,2000 nM
CC[C@H](CO)Nc1nc(NCc2ccccc2)c2ncn(C(C)C)c2n1 [Roscovitine],"Rb, phRB and E2F1 expression","Rb, phRB and E2F1",no pronounced effect
same,cell cycle distribution,UMUC3 cells,slight increase of G2/m arrested cells
